From patent US8071795B2, “HIF inhibitors” (Emory University, priority 2005, dated 2011)

Assays:
HIF-1/HRE pathway = assay: LN229-HRE-AP hypoxia-inducible alkaline phosphatase reporter bioassay; assay type: cell-based, human
Method: Genetically engineered LN229 cells (a human glioma cell line) which stably express the alkaline phosphatase reporter gene under the control of six copies of a hypoxia-responsive element was used to identify small-molecule inhibitors of the HIF-1/HRE pathway. The engineered LN229 cell line is disclosed in U.S. Provisional Patent Application No. 60/235,283, which is incorporated by reference in its entirety herein. Cells were seeded at 40,000 cells per well in 96-well plates. Compounds of interest with 2,2-dimethylbenzopyran motifs were added and the plates were incubated under hypoxia (1% O2, 5% CO2 and 94% N2) at 37° C. for 24 h. Cells were then washed with phosphate-buffered saline and incubated with p-nitrophenyl phosphate at 37° C. for 30 min. The reaction was terminated by adding 3 N NaOH and the plates were read for absorbance at 405 nm. The anti-HIF-1/HRE activity of each compound was quantified as the decrease of percentage of alkaline phosphatase (AP) activity compared to the untreated control cells. […]
To screen for small molecule HIF-1 pathway inhibitors, a cell-based assay was established by stably transfecting a glioma cell line with a hypoxia-inducible alkaline phosphatase (AlkPhos) expression vector (LN229-HRE-AP). Exposure of the cells to hypoxia (1% O2) induced reporter gene expression, which could be detected and quantitated by a […] reaction. […]

[1] = tested on: phospho-proteins involved in key cell signaling pathways; assay: multiplex Western (Kinexus) of phospho-proteins in LN229 cell extracts; assay type: cell-based, human; settings: 27 of 37 phospho-proteins
Method: (§1) FIG. 11 illustrates an analysis of specificity of KCN1. LN229 cells were pre-treated with KCN1 (25 uM) for 1 h and then put in 1% O2 for […]. Cell extracts were analyzed by Western blot for levels of total proteins (FIG. 11 (A)) and phospho-proteins by multiplex Western FIG. 11 (B)). It should be noted that a strong increase of HIF-1α levels under hypoxia is inhibited by KCN1.
(§2) The above extracts were further analyzed to detect changes in the activity states of key signal transduction proteins by multiplex Western (Kinexus). This method allows the simultaneous screening of 37 different phospho-proteins involved in key cell signaling pathways. […] KCN1 inhibits only HIF-1α under hypoxic conditions (FIG. 11 (C)).

HIF-1α = assay: Western blot of total protein levels in LN229 cell extracts; assay type: cell-based, human
Method: as §1, §2

LN229 glioma xenograft = assay: sc LN229 glioma xenograft growth; assay type: in vivo, nude mice
Method: FIG. 20 illustrates that KCN1 inhibits sc LN229 glioma xenograft growth. LN-229 (5×10^6) was implanted in both flanks of nude mice (8/group) and 1 week later started intraperitoneal injections of KCN1 (60 mg/kg; 5 days/week). FIG. 20(A) illustrates tumor volume over time as measured with a caliper.
(§3) KCN1 was formulated in Cremaphor/EtOH for mice delivery and determined empirically (i.e., without prior under-standing of its in vivo pharmacology) whether preliminary anti-tumorigenic effects could be observed. […] (up to 100 mg/kg) injected animals.

[2] = PK study in U87MG-EGFRvIII brain tumor model, HPLC; assay type: in vivo, mice; settings: iv. 35 mg/kg; 6, 18 and 24 hrs
Method: FIG. 18 illustrates a PK study of KCN1 in a brain tumor model. FIG. 18(A) illustrates MRI of U87MG-EGFRvIII grown in mice brain. FIG. 18(B) illustrates the kinetics of KCN1 accumulation in normal and tumoral brain after iv. injection at 35 mg/kg.
The BBB may constitute an obstacle to drug delivery. To examine whether KCN1 would reside in the brain over a longer period of time and whether it would accumulate in higher amounts in the tumor versus normal brain we carried out a preliminary PK experiment. Nude mice carrying U87MG-EGFRvIII tumors were injected iv. with KCN1 and sacrificed at 6, 18 and 24 hrs. KCN1 concentration in the brain tumor and contra-lateral normal brain was performed by HPLC.

HIF = assay: microscopy of HIF location and HRE-luciferase activity in LN229 cells; assay type: cell-based, human
Text: To examine whether KCN1 might interfere with the ability of HIF to translocate to the nucleus, its location was examined by microscopy in LN229 cells containing a stably integrated HRE-luciferase reporter construct. Under hypoxia KCN1 inhibits HIF accumulation and no HIF is seen in the nucleus or cytoplasm. […] Measurement of HIF-induced luciferase activity (lower panel) confirms that HIF is transcriptionally active in the presence of KCN1 in the COCl2 treated cells.
(§4) To gain insight into the possible mechanism of action of KCN1 a number of experiments listed below were performed. First, an experiment focused on whether KCN1 might block HIF at the mRNA or protein level was performed. To examine whether KCN1 might interfere with HIF-1 alpha mRNA synthesis or stability, Northern blots were performed. […] Second, an experiment focused on whether KCN1 might interfere with the ability of HIF to translocate to the nucleus was performed by examining its location by microscopy in LN229 cells. Under hypoxia KCN1 inhibits HIF accumulation, confirming the Western blot results and no HIF is seen in the nucleus or cytoplasm.
In addition, experiments focused on whether HIF present in the nucleus of the KCN1 and CoCl2 treated cells was transcriptionally active were performed. […]

[3] = tolerability in injected animals; assay type: in vivo; settings: it. and iv. (up to 100 mg/kg)
Method: as §3

experimental LogP = assay type: physicochemical
Text: Four grams of KCN1 have been synthesized for initial PK and anti-tumor studies. FIG. 10 illustrates an illustrative embodiment of a method for forming KCN1.

[4] = tested on: Akt (Serine 473 phosphorylation), PI3K signaling pathway; assay: Akt phosphorylation in response to IGF1; assay type: cell-based; settings: 1, 3, and 6 hrs
Method: In addition, experiments focused on whether HIF present in the nucleus of the KCN1 and CoCl2 treated cells was transcriptionally active were performed. […] Third, an experiment focused on whether KCN1 might interfere with HIF synthesis through the PI3 kinase/Akt/mTOR pathway that controls mRNA translation was performed. The effects of KCN1 on the phosphorylation of Akt in response to growth factor IGF1 (insulin growth factor 1) were examined. […] This finding might have therapeutic implications independently of the activities of KCN1 on HIF.

topoisomerase II = assay: kinetoplast DNA decatenation assay; assay type: biochemical
Method: FIG. 15 illustrates that HIF inhibitor F2 (Psammaplin analogue) but not KCN1 inhibits topoisomerase II activity. Purified topo II activity with F2 or KCN1 was analyzed under normoxia using kDNA decatenation assay. To examine the activity, 1% agarose gel with ethidium bromide was used and it enabled to detect catenated kDNA and decatenated kDNA. In lanes 5 and 9, inhibition of topoisomerase II activity was detected as evidenced by the presence of catenated DNA.
Finally, an experiment focused on whether some of the HIF inhibitors might have an effect on topoisomerase function was performed. It has been reported in the literature that some HIF inhibitors may act via a topoisomerase-dependent mechanism (Rapisarda A et al 2004, Cancer Res 64-1475-82). KCN1 and psammaplin analogue F2 (FIG. 8) were tested and their inhibitory effect on topoisomerase II using a kinetoplast DNA decatenation assay (FIG. 15) was examined.

HIF-1 alpha mRNA = assay: Northern blot of HIF-1 alpha mRNA; assay type: cell-based; settings: with or without KCN1 treatment
Method: To examine whether KCN1 might interfere with mRNA synthesis or stability Northern blots were performed.
as §4

[5] = tested on: HIF-dependent luciferase activity; assay: pharmacodynamic BLI study in LN229 HRE-luciferase glioma xenografts; assay type: in vivo, mouse
Method: FIG. 19 illustrates a pharmacodynamic study of KCN1 in nu/nu mouse bearing LN229HRE-luci-ferase gliomas. KCN1 (2 mg) dissolved in DMSO was injected in the right hind tumor, and DMSO control in the left hind tumor. The mouse was injected with D-luciferin and imaged by BLI before FIG. 19 (C) and 5 & 28 hrs after injection. It should be noted strong reduction in HIF-dependent luciferase activity in right hind tumor at 5 hrs and partial recovery of HIF signaling after 28 hrs. (n=2).
It is well appreciated that the efficacy of anti-cancer agents in rodents is an imprecise predictor of the success of these drugs in clinical trials. Therefore, evaluating the molecular and mechanistic end points of drug treatment is an important complementary approach to early pre-clinical studies. With this in mind, we sought to determine whether our lead HIF-1 pathway inhibitor (KCN1) can reduce HIF activity in a glioma xenograft model. In a pilot study, we used a mouse bearing 4 xenografts of LN229 cells containing a stable HIF responsive luciferase reporter (size-matched medium sized tumors in the back and small ones in the front). The HIF-dependent luciferase activity in the tumors was detected by non-invasive BLI. As expected, the larger hind tumors produced the strongest luciferase signal, likely due to the increase in the hypoxic volume. […]

| topo II activity (topoisomerase II; 100 uM) | Compound | IC50 (HIF-1/HRE pathway; LN229-HRE-AP cells, hypoxia 1% O2) | inhibitory activity relative to initial HIF-inhibitor 85D5R (HIF-1/HRE pathway; SAR, modifications in regions I and II) | effects on phospho-proteins with detectable phosphorylation [1] | HIF-1α protein level under hypoxia (HIF-1α; LN229 cells, KCN1 25 uM, 1% O2, 5 hrs) | stabilization of HIF-1alpha under normoxia (HIF-1α; induced by CoCl2, desferroxiamine or MG132) | weight of dissected tumors, fold less than control (LN229 glioma xenograft; 60 mg/kg intraperitoneal, 5 days/week, at termination) | tumor growth (LN229 glioma xenograft; Cremaphor/EtOH formulation) | distribution between brain tumor and contra-lateral normal brain [2] | luciferase activity of HRE-luciferase reporter (HIF; KCN1 and CoCl2 treated cells) | nuclear accumulation of HIF (HIF; LN229 cells, CoCl2 conditions) | toxicity [3] | experimental LogP (experimental LogP) | IGF1-induced phosphorylation of Akt on Serine 473 [4] | phospho-Akt level [4] | topo II activity (topoisomerase II; 5-25 uM) | HIF-1alpha mRNA levels (HIF-1 alpha mRNA) | reduction of HIF-dependent luciferase activity in injected tumor ([5]; 2 mg in DMSO intratumoral, 5 hrs) | HIF-dependent luciferase activity in injected tumor ([5]; after 28 h) |
| --- | --- | --- | --- | --- | --- | --- | --- | --- | --- | --- | --- | --- | --- | --- | --- | --- | --- | --- | --- |
|  | COc1ccc(S(=O)(=O)N(Cc2ccc3c(c2)C=CC(C)(C)O3)c2ccccc2)cc1OC [KCN1] | ~4 µM | improved acitivities | < 1.5 fold | strong anti-HIF-1α activity is detected | is not inhibited | ~6 fold | strong and sustained inhibition of tumor growth | preferentially accumulates in and is retained in the brain tumor | remained active | does not interfere with nuclear accumulation | no apparent toxicity was observed | 3.9 | not inhibited | increase in phospho-Akt is observed | did not inhibit | remained constant | > 90% | recovered |
| inhibitory activity observed | COc1cc([C@@H]2c3cc4c(cc3[C@@H](O[C@@H]3O[C@@H]5CO[C@@H](C)O[C@H]5[C@H](O)[C@H]3O)[C@H]3COC(=O)[C@H]23)OCO4)cc(OC)c1O [etoposide, reference compound] |  |  |  |  |  |  |  |  |  |  |  |  |  |  |  |  |  |  |
